Laboratory results: PMC9268243, “Metabolic Behaviors of Aconitum Alkaloids in Different Concentrations of Aconiti Lateralis Radix Praeparata and Effects of Aconitine in Healthy Human and Long QT Syndrome Cardiomyocytes” (Molecules, 2022)

Legend:
Assay type in all cases: cell-based, human
LQT syndrome hiPSC-CMs = assay: Impedance beating recordings (cell index, beat rate, amplitude), LQT syndrome hiPSC-CMs
Protocol: HiPSCs derived from healthy controls (Cat: NC20010002; Lot.HJ210577NC22), or patients (Cat. NC20300002; Lot. CP210578NC04) diagnosed with LQT syndrome was maintained in HELP4004 (HELP, Nanjing, China) medium on Matrigel-coated (BD Bio science, San Jose, CA, USA) plates at 37 °C; with 5% CO2 (v/v).
The cardiomyocytes were seeded on Nanion CardioExcyte 96 Sensor Plates (NSP-96, Nanion Technologies, Munich, Germany) after 0.1% gelatin coating for 1 h. The initial volume was 200 μL per well and contained approximately […]. After seeding, the NSP-96 and CardioExcyte 96 were returned to the incubator. All cells were replaced with fresh medium 200 μL per well every 48 h and tested after 168 h. Cellular index, beat rate, base impedance and beat amplitude were monitored in this experiment.
(§1) Isoproterenol, nifedipine, and AC were purchased from Sigma-Aldrich, which were resolved in DMSO (Sigma-Aldrich, D2650). Drug compounds final concentration were AC (0.05, 0.5,5 μM), nifedipine (1 μM), isoproterenol (3 μM), respectively. Dilutions were prepared within 60 min of treatment. All the compound solutions were subjected to regular 10 min ultrasound and oscillations to ensure that compounds were completely dissolved. Equal amounts of DMSO (0.1%) were used as the vehicle controls.

normal hiPSC-CMs [1] = assay: Whole-cell current-clamp action potential recording, normal hiPSC-CMs; conditions: normal hiPSC-CMs, 0.05, 0.5 and 5 μM, 1 Hz stimulation
Source text: Standard patch-clamp techniques were used to record action potentials, and L-type calcium currents. Composition of intracellular fluid and extracellular fluid were shown in Table 7 and Table 8, respectively. The signal was amplified using an HEKA EPC-10 patch-clamp amplifier (HEKA, Electronics, Ludwigshafen, Germany) and low-pass filtered at 5 kHz. Patch pipettes were fabricated from glass capillaries using a Sutter P-97 microelectrode puller (Novato, CA, USA) and the tips were heat polished with a microforge (NARISHIGE MF-900) to gain a resistance of 2–5 MΩ. Data acquisition was achieved using HEKA Patchmaster (V2x73.2). Data analysis and fit were performed using Clamfit and Graphpad Prism 6.0. The experiment was conducted at 37 °C. One cell can test one or more drugs, or multiple concentrations of the same drug but needs to be rinsed with extracellular fluid between each test. Nifedipine (Sigma) was used as a positive control to ensure cell quality. External solution containing 0.1% DMSO was applied as vehicle to establish the baseline. Recording was done at a temperature-controlled room of 35–37 degrees Celsius.
Isoproterenol, nifedipine, and AC were purchased from Sigma-Aldrich, which were resolved in DMSO (Sigma-Aldrich, D2650). Drug compounds final concentration were AC (0.05, 0.5,5 μM), nifedipine (1 μM), isoproterenol (3 μM), respectively. […]

normal hiPSC-CMs [2] = assay: Ca2+ imaging of calcium transients, normal hiPSC-CMs; conditions: compared with the control group
Protocol: Dissociated day 30–33 post-differentiation hiPSC-CMs (healthy and LQT specific patient) were reseeded Matrigel-coated plate in HELP4004 (HELP) and were treated with 5 μM Fluo-3 AM and 0.02% Pluronic (Life Technologies) in DMEM/F12 (Gibco) for 60 min at 37 °C. Cells were washed with DMEM/F12 without fluorochrome solution afterwards for 30 min, replaced the solution with Tyrode’s solution. Ca^2+ imaging was conducted using Olympus IX71 confocal microscope (Olympus IX71, Tokyo, Japan) and analyzed using Olympus imaging software. Ca^2+ spontaneous transients were obtained using a single cell line scan mode at 37 °C.
as §1

[3] = LQT hiPSC-CMs, 0.05 μM, versus control group

Compound: CCN1C[C@]2(COC)[C@H](O)C[C@H](OC)[C@@]34[C@@H]5C[C@@]6(O)[C@H](OC(=O)c7ccccc7)[C@@H]5[C@@](OC(C)=O)([C@@H]([C@H](OC)[C@H]23)[C@@H]14)[C@@H](O)[C@@H]6OC [AC, aconitine]
- contraction force (LQT syndrome hiPSC-CMs; [3]): lower contraction force
- contraction frequency (LQT syndrome hiPSC-CMs; [3]): higher contraction frequency
- cell frequency (LQT syndrome hiPSC-CMs; LQT hiPSC-CMs, 0.5 μM): significantly increased
- contractility (LQT syndrome hiPSC-CMs; LQT hiPSC-CMs, 0.5 μM): significantly increased
- cell contractility (LQT syndrome hiPSC-CMs; LQT hiPSC-CMs, 5 μM, very weak within 30 h after treatment): decreased to zero
- myocardial cell death (LQT syndrome hiPSC-CMs; LQT hiPSC-CMs, three concentrations (0.05, 0.5, 5 μM), 48 h observation period): None of the three concentrations caused significant myocardial cell death
- cell index (LQT syndrome hiPSC-CMs; LQTS hiPSC-CMs, 5.0 μM, between 5–30 min): decreased the cell index
- APD50 (normal hiPSC-CMs [1]): concentration-dependently shortened
- amplitude and frequency of calcium transient (normal hiPSC-CMs [2]): no significant effect
